From ChEMBL document CHEMBL3885881, “DrugMatrix”

Species: Rattus norvegicus
Assay: DrugMatrix - Regimen: Daily Repeat
Type: toxicity, organism-based, Sprague-Dawley
Parameters: regimen Daily Repeat, gender Male, age 6-8 weeks
Details: in vivo, po, route oral GAVAGE, vehicle .5 % CMC; for ABSOLUTE BASOPHIL / ABSOLUTE EOSINOPHIL / ABSOLUTE LYMPHOCYTE / ABSOLUTE MONOCYTE / ABSOLUTE SEGMENTED NEUTROPHIL / BASOPHIL / EOSINOPHIL / ERYTHROCYTE COUNT / HEMATOCRIT / HEMOGLOBIN / LEUKOCYTE COUNT / LYMPHOCYTE / MEAN CORPUSCULAR HEMOGLOBIN / MEAN CORPUSCULAR HEMOGLOBIN CONCENTRATION / MONOCYTE / NEUTROPHIL / NUCLEATED RED BLOOD CELLS / PLATELET COUNT: tissue Blood; for ALANINE AMINOTRANSFERASE / ALBUMIN / ALKALINE PHOSPHATASE / ASPARTATE AMINOTRANSFERASE / BLOOD UREA NITROGEN / CARBON DIOXIDE / CHLORIDE / CHOLESTEROL / CREATINE PHOSPHOKINASE / CREATININE / GLUCOSE / LACTATE DEHYDROGENASE / LIPASE / PHOSPHORUS / POTASSIUM / SODIUM / TOTAL BILIRUBIN / TOTAL PROTEIN / URIC ACID: tissue Plasma
[1] = 3 mg/kg, 120 h, dose level Low, time 5 day
[2] = 2000 mg/kg, 72 h, dose level High, time 3 day
[3] = 2000 mg/kg, 120 h, dose level High, time 5 day

In the case of COc1cc2nc(N3CCN(C(=O)c4ccco4)CC3)nc(N)c2cc1OC [PRAZOSIN], the “ABSOLUTE BASOPHIL” value [1] is reported as 0 CELLS/uL, the “ABSOLUTE EOSINOPHIL” value [1] is reported as 228.67 CELLS/uL and the “ABSOLUTE LYMPHOCYTE” value [1] is reported as 11545.33 CELLS/uL. For the same compound, the “ABSOLUTE MONOCYTE” value [1] was 136 CELLS/uL, the “ABSOLUTE SEGMENTED NEUTROPHIL” value [1] was 1690 CELLS/uL and the BASOPHIL [1] was 0%. For the same compound, the EOSINOPHIL [1] was 1.67%, the “ERYTHROCYTE COUNT” value [1] was 5.54 x10E6/uL and the HEMATOCRIT [1] was 34.63%. The HEMOGLOBIN [1] was 13.5 G/DL, the “LEUKOCYTE COUNT” value [1] was 13.6 x10E3/uL and the LYMPHOCYTE [1] was 85.33%. The “MEAN CORPUSCULAR HEMOGLOBIN” value [1] was 24.47 pg, the “MEAN CORPUSCULAR HEMOGLOBIN CONCENTRATION” value [1] was 39.03 G/DL and the MONOCYTE [1] was 1%. For the same compound, the NEUTROPHIL [1] was 12%, the “NUCLEATED RED BLOOD CELLS” value [1] was 0 /100WBC and the “PLATELET COUNT” value [1] was 1245 x10E3/uL. For the same compound, the “ALANINE AMINOTRANSFERASE” value [1] was 57.33 u/L, the ALBUMIN [1] was 4.23 G/DL and the “ALKALINE PHOSPHATASE” value [1] was 336.33 u/L. For the same compound, the “ASPARTATE AMINOTRANSFERASE” value [1] was 106.67 u/L, the “BLOOD UREA NITROGEN” value [1] was 16.67 mg/dL and the “CARBON DIOXIDE” value [1] was 21.67 mmol/L. The CHLORIDE [1] was 104.33 MEQ/L, the CHOLESTEROL [1] was 73 mg/dL and the “CREATINE PHOSPHOKINASE” value [1] was 877.67 u/L. For the same compound, the CREATININE [1] was 0.19 mg/dL, the GLUCOSE [1] was 131.67 mg/dL and the “LACTATE DEHYDROGENASE” value [1] was 643.67 u/L. It also gave an LIPASE [1] of 9.67 u/L, a PHOSPHORUS [1] of 11.7 mg/dL and a POTASSIUM [1] of 6.1 MEQ/L. The SODIUM [1] was 144.23 MEQ/L, the “TOTAL BILIRUBIN” value [1] was 0.23 mg/dL and the “TOTAL PROTEIN” value [1] was 6.13 G/DL. The “URIC ACID” value [1] was 1.5 mg/dL, the “ABSOLUTE BASOPHIL” value [2] was 0 CELLS/uL and the “ABSOLUTE EOSINOPHIL” value [2] was 93.33 CELLS/uL. The “ABSOLUTE LYMPHOCYTE” value [2] was 7483.33 CELLS/uL, the “ABSOLUTE MONOCYTE” value [2] was 100 CELLS/uL and the “ABSOLUTE SEGMENTED NEUTROPHIL” value [2] was 856.67 CELLS/uL. The BASOPHIL [2] was 0%, the EOSINOPHIL [2] was 1% and the “ERYTHROCYTE COUNT” value [2] was 5.18 x10E6/uL. For the same compound, the HEMATOCRIT [2] was 33.2%, the HEMOGLOBIN [2] was 13 G/DL and the “LEUKOCYTE COUNT” value [2] was 8.53 x10E3/uL. The LYMPHOCYTE [2] was 87.33%, the “MEAN CORPUSCULAR HEMOGLOBIN” value [2] was 25.1 pg and the “MEAN CORPUSCULAR HEMOGLOBIN CONCENTRATION” value [2] was 39.17 G/DL. For the same compound, the MONOCYTE [2] was 1.33%, the NEUTROPHIL [2] was 10.33% and the “NUCLEATED RED BLOOD CELLS” value [2] was 0 /100WBC. The “PLATELET COUNT” value [2] was 1248.33 x10E3/uL, the “ALANINE AMINOTRANSFERASE” value [2] was 55.33 u/L and the ALBUMIN [2] was 3.8 G/DL. For the same compound, the “ALKALINE PHOSPHATASE” value [2] was 290.33 u/L, the “ASPARTATE AMINOTRANSFERASE” value [2] was 131.67 u/L and the “BLOOD UREA NITROGEN” value [2] was 18.33 mg/dL. The “CARBON DIOXIDE” value [2] was 24 mmol/L, the CHLORIDE [2] was 105 MEQ/L and the CHOLESTEROL [2] was 68.33 mg/dL. The “CREATINE PHOSPHOKINASE” value [2] was 1224.33 u/L, the CREATININE [2] was 0.19 mg/dL and the GLUCOSE [2] was 153 mg/dL. For the same compound, the “LACTATE DEHYDROGENASE” value [2] was 177.67 u/L, the LIPASE [2] was 9.67 u/L and the PHOSPHORUS [2] was 10.87 mg/dL. The POTASSIUM [2] was 5.14 MEQ/L, the SODIUM [2] was 144.9 MEQ/L and the “TOTAL BILIRUBIN” value [2] was 0.17 mg/dL. The “TOTAL PROTEIN” value [2] was 5.37 G/DL, the “URIC ACID” value [2] was 1.17 mg/dL and the “ABSOLUTE BASOPHIL” value [3] was 0 CELLS/uL. The “ABSOLUTE EOSINOPHIL” value [3] was 0 CELLS/uL, the “ABSOLUTE LYMPHOCYTE” value [3] was 9169.67 CELLS/uL and the “ABSOLUTE MONOCYTE” value [3] was 0 CELLS/uL. For the same compound, the “ABSOLUTE SEGMENTED NEUTROPHIL” value [3] was 630.33 CELLS/uL, the BASOPHIL [3] was 0% and the EOSINOPHIL [3] was 0%. For the same compound, the “ERYTHROCYTE COUNT” value [3] was 5.58 x10E6/uL, the HEMATOCRIT [3] was 34% and the HEMOGLOBIN [3] was 13.3 G/DL. The “LEUKOCYTE COUNT” value [3] was 9.8 x10E3/uL, the LYMPHOCYTE [3] was 93.33% and the “MEAN CORPUSCULAR HEMOGLOBIN” value [3] was 23.83 pg. For the same compound, the “MEAN CORPUSCULAR HEMOGLOBIN CONCENTRATION” value [3] was 39.13 G/DL, the MONOCYTE [3] was 0% and the NEUTROPHIL [3] was 6.67%. For the same compound, the “NUCLEATED RED BLOOD CELLS” value [3] was 0 /100WBC, the “PLATELET COUNT” value [3] was 1205.67 x10E3/uL and the “ALANINE AMINOTRANSFERASE” value [3] was 63.33 u/L. The ALBUMIN [3] was 3.8 G/DL, the “ALKALINE PHOSPHATASE” value [3] was 286.33 u/L and the “ASPARTATE AMINOTRANSFERASE” value [3] was 139.33 u/L. For the same compound, the “BLOOD UREA NITROGEN” value [3] was 16 mg/dL, the “CARBON DIOXIDE” value [3] was 21.33 mmol/L and the CHLORIDE [3] was 104.67 MEQ/L. The CHOLESTEROL [3] was 64.67 mg/dL, the “CREATINE PHOSPHOKINASE” value [3] was 1202.67 u/L and the CREATININE [3] was 0.19 mg/dL. For the same compound, the GLUCOSE [3] was 152 mg/dL, the “LACTATE DEHYDROGENASE” value [3] was 204 u/L and the LIPASE [3] was 9 u/L. For the same compound, the PHOSPHORUS [3] was 10.4 mg/dL, the POTASSIUM [3] was 5.65 MEQ/L and the SODIUM [3] was 146.07 MEQ/L. For the same compound, the “TOTAL BILIRUBIN” value [3] was 0.2 mg/dL, the “TOTAL PROTEIN” value [3] was 5.3 G/DL and the “URIC ACID” value [3] was 0.73 mg/dL.
